# Experimental data: ChEMBL document CHEMBL5113481, “Design, synthesis and biological evaluation of quinoline-2-carbonitrile-based hydroxamic acids as dual tubulin polymerization and histone deacetylases inhibitors” (Eur J Med Chem, 2022)
# Activity calls are given as the source filed them. The calls are words filed in the database; no cut-off is given here.
# Legend:
# HCT-116 = assay: Antiproliferative activity against human HCT-116 cells after 72 hrs by CellTiter Glo assay; assay type: functional, cell-based; settings: for GI50: time 72 hrs
# SK-OV-3 = assay: Antiproliferative activity against human SK-OV-3 cells after 72 hrs by CellTiter Glo assay; assay type: functional, cell-based; settings: SK-OV-3, 72 h
# MDA-MB-231 = assay: Antiproliferative activity against human MDA-MB-231 cells after 72 hrs by CellTiter Glo assay; assay type: functional, cell-based; settings: MDA-MB-231, 72 h
# HT-29 [1] = assay: Antiproliferative activity against human HT-29 cells after 72 hrs by CellTiter Glo assay; assay type: functional, cell-based; settings: HT-29, 72 h
# K562 [2] = assay: Antiproliferative activity against human K562 cells after 72 hrs by CellTiter Glo assay; assay type: functional, cell-based; settings: K562, 72 h
# NCI-N87 = assay: Antiproliferative activity against human NCI-N87 cells after 72 hrs by CellTiter Glo assay; assay type: functional, cell-based; settings: NCI-N87, 72 h
# A549 = assay: Antiproliferative activity against human A549 cells after 72 hrs by CellTiter Glo assay; assay type: functional, cell-based; settings: A549, 72 h
# K562 [3] = assay: Antiproliferative activity against imatinib-resistant human K562 cells over expressing MDR1 after 72 hrs by CellTiter Glo assay; assay type: functional, cell-based; settings: K562, 72 h
# MCF7 = assay: Antiproliferative activity against human MCF7 cells after 72 hrs by CellTiter Glo assay; assay type: functional, cell-based; settings: MCF7, 72 h
# MIA PaCa-2 = assay: Antiproliferative activity against human MIA PaCa-2 cells after 72 hrs by CellTiter Glo assay; assay type: functional, cell-based; settings: MIA PaCa-2, 72 h
# [4] = Metabolic stability in rat liver microsomes assessed as intrinsic clearance per mg protein measured upto 6 hrs in presence of NADPH generating system by HPLC-MS/MS analysis; assay type: ADME, Microsome; settings: read-out: CLH
# [5] = Metabolic stability in human liver microsomes assessed as half-life measured upto 6 hrs in presence of NADPH generating system by HPLC-MS/MS analysis; assay type: ADME, Microsome
# [6] = Metabolic stability in rat liver microsomes assessed as half-life measured upto 6 hrs in presence of NADPH generating system by HPLC-MS/MS analysis; assay type: ADME, Microsome
# Tubulin = assay: Inhibition of tubulin polymerization in human HeLa cells assessed as microtubule network polymerization after 30 mins by immunofluorescence analysis; assay type: cell-based
# [7] = Metabolic stability in human liver microsomes assessed as intrinsic clearance per mg protein measured upto 6 hrs in presence of NADPH generating system by HPLC-MS/MS analysis; assay type: ADME, Microsome; settings: read-out: CLH
# HT-29 [8] = assay: Induction of mitochondrial dysfunction in human HT-29 cells at 2 nM measured after 48 hrs by JC-1 staining based flow cytometry; assay type: functional, cell-based
# [9] = Solubility of compound in water; assay type: physicochemical
# HT-29 [10] = assay: Cell cycle arrest in human HT-29 cells assessed as accumulation of cells in G2/M phase at 5 nM measured after 24 hrs by PI staining based flow cytometry method; assay type: functional
# [11] = molecular target: T1, Protein deacetylase HDAC6 (Homo sapiens, UniProt Q9UBN7); assay: Inhibition of HDAC6 (unknown origin) measured by fluorometry assay
# T1 sequence (Q9UBN7 whole entry): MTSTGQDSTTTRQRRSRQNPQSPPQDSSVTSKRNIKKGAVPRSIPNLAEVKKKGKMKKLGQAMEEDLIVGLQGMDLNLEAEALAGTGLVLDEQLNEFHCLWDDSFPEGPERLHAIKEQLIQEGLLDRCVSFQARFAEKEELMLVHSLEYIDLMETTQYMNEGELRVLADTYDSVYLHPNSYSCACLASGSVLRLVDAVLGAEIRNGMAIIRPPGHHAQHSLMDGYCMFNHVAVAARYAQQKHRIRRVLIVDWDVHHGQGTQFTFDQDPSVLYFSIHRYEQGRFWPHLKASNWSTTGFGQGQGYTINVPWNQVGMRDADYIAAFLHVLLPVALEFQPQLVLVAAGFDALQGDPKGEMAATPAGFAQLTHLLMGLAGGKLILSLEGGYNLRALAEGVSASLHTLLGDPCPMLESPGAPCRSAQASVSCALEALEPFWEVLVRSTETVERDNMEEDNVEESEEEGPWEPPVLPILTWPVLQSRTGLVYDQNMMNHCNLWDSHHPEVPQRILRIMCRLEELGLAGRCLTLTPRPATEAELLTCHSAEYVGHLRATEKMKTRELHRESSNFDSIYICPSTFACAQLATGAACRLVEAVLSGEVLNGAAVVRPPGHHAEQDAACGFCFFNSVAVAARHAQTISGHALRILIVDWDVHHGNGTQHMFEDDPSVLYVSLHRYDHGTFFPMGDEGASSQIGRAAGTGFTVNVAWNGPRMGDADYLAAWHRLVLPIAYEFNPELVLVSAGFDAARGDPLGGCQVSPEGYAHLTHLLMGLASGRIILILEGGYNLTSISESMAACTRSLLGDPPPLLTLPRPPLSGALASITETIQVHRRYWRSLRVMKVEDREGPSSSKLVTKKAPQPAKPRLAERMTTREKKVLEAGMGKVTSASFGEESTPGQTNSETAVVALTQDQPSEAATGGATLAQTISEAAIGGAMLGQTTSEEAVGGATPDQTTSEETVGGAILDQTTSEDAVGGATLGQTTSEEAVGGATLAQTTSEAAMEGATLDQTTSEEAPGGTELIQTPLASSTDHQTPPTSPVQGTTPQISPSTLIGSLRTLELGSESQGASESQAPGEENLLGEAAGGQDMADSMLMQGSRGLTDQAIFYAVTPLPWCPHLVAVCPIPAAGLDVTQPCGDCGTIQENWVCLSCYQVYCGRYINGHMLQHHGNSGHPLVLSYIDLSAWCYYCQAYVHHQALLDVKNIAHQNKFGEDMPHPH
# Histone deacetylase 8 = molecular target: T2, Histone deacetylase 8 (Homo sapiens, UniProt Q9BY41); assay: Inhibition of HDAC8 (unknown origin) measured by fluorometry assay
# T2 sequence (Q9BY41 whole entry): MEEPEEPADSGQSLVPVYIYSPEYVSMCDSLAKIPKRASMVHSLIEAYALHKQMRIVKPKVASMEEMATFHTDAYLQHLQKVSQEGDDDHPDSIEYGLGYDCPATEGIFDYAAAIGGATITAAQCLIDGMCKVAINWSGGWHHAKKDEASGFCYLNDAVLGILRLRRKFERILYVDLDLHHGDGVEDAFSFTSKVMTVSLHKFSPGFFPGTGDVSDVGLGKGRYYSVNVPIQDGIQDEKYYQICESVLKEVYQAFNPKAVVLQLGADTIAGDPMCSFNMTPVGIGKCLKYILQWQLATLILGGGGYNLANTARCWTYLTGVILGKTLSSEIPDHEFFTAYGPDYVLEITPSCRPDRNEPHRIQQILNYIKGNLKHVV
# HT-29 [12] = assay: Cell cycle arrest in human HT-29 cells assessed as accumulation of cells in G2/M phase at 0.1 to 5 nM measured after 24 hrs by PI staining based flow cytometry method; assay type: functional; settings: dose 0.1-5 nM, DDE = dose-dependent effect
# Histone deacetylase 11 = molecular target: T3, Histone deacetylase 11 (Homo sapiens, UniProt Q96DB2); assay: Inhibition of HDAC11 (unknown origin) measured by fluorometry assay
# T3 sequence (Q96DB2 whole entry): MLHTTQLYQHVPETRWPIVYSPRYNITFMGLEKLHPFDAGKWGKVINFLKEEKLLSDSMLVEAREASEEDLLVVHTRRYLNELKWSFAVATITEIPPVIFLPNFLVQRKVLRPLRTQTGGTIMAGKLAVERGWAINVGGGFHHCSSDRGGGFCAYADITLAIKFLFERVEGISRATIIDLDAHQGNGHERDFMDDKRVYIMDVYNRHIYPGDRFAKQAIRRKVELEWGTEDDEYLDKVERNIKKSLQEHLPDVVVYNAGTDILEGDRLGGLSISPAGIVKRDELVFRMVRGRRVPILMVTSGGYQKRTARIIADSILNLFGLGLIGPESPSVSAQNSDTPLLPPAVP
smiles,measurement,setting,value
COc1ccc(N(C)c2cc(C)nc3ccccc23)cc1/C=C/C(=O)NOC1CCCCO1 (stereo unspecified),GI50,"HCT-116; Homo sapiens, HCT-116",30.3 nM
CC(/C=C/C(=O)NO)=C\[C@@H](C)C(=O)c1ccc(N(C)C)cc1 [TRICHOSTATIN],IC50,SK-OV-3,100 nM
same,IC50,MDA-MB-231,91 nM
same,IC50,HT-29 [1],55 nM
same,IC50,K562 [2],260 nM
same,GI50,HCT-116,35 nM
same,IC50,NCI-N87,58 nM
same,IC50,A549,80 nM
same,IC50,K562 [3],90 nM
same,IC50,MCF7,54 nM
same,IC50,MIA PaCa-2,200 nM
COc1ccc(/C=C\c2cc(OC)c(OC)c(OC)c2)cc1O [COMBRETASTATIN A4],IC50,SK-OV-3,6 nM
same,IC50,HT-29 [1],> 10000 nM
same,GI50,"HCT-116; Homo sapiens, HCT-116",2.4 nM
same,IC50,NCI-N87,11 nM
same,IC50,K562 [3],25 nM
same,IC50,MCF7,172 nM
same,IC50,MIA PaCa-2,8 nM
C=C(c1ccc(OC)c(O)c1)c1cc(OC)c(OC)c(OC)c1,IC50,SK-OV-3,5 nM
same,microsomal CLint,[4],2.73 µL/min/mg
same,half-life,[5],12 h
same,GI50,"HCT-116; Homo sapiens, HCT-116",2.2 nM
same,IC50,NCI-N87,14 nM
same,half-life,[6],4.24 h
same,IC50,A549,12 nM
same,IC50,Tubulin,6 nM
same,IC50,K562 [3],3 nM
same,microsomal CLint,[7],0.96 µL/min/mg
C=C(c1ccc(OC)c(/C=C/C(=O)NO)c1)c1cc(OC)c(OC)c(OC)c1,IC50,SK-OV-3,4 nM
same,IC50,MDA-MB-231,4.6 nM
same,IC50,HT-29 [1],2 nM
same,IC50,K562 [2],1.6 nM
same,microsomal CLint,[4],2.57 µL/min/mg
same,half-life,[5],14 h
same,IC50,"HCT-116; Homo sapiens, HCT-116, 72 h",1.5 nM
same,IC50,NCI-N87,3.2 nM
same,half-life,[6],4.42 h
same,IC50,A549,2 nM
same,IC50,K562 [3],1.4 nM
same,IC50,MCF7,2.2 nM
same,microsomal CLint,[7],0.83 µL/min/mg
same,IC50,MIA PaCa-2,6 nM
C=C(c1ccc(OC)c(/C=C/C(=O)NO)c1)c1cc(C)nc2ccccc12,GI50,"HCT-116; Homo sapiens, HCT-116",10.1 nM
COc1ccc(N(C)c2cc(C#N)nc3ccccc23)cc1/C=C/CCC(=O)NO,GI50,"HCT-116; Homo sapiens, HCT-116",34.4 nM
COc1ccc(N(C)c2cc(C#N)nc3ccccc23)cc1OCCCC(=O)NO,GI50,"HCT-116; Homo sapiens, HCT-116",381 nM
COc1ccc(N(C)c2nc(C)nc3ccccc23)cc1/C=C/C(=O)NO,Activity,HT-29 [8],Active
same,IC50,SK-OV-3,0.3 nM
same,solubility,[9],65 µg/mL
same,IC50,MDA-MB-231,0.55 nM
same,IC50,HT-29 [1],0.66 nM
same,IC50,K562 [2],0.38 nM
same,microsomal CLint,[4],3.27 µL/min/mg
same,Activity,HT-29 [10],>95%
same,half-life,[5],9 h
same,IC50,[11],2000 nM
same,GI50,"HCT-116; Homo sapiens, HCT-116",0.6 nM
same,IC50,NCI-N87,0.17 nM
same,half-life,[6],3.53 h
same,IC50,A549,0.51 nM
same,IC50,Histone deacetylase 8,280 nM
same,IC50,K562 [3],1.63 nM
same,Activity,HT-29 [12],Dde
same,IC50,MCF7,0.8 nM
same,microsomal CLint,[7],1.28 µL/min/mg
same,IC50,Histone deacetylase 11,3200 nM
same,IC50,MIA PaCa-2,1.1 nM
COc1ccc(N(C)c2nc(C#N)nc3ccccc23)cc1/C=C/C(=O)NO,GI50,"HCT-116; Homo sapiens, HCT-116",1.5 nM
COc1ccc(Cn2ccc3ccc(C(=O)NO)cc32)cc1,IC50,HT-29 [1],> 10000 nM
same,IC50,K562 [2],2010 nM
same,GI50,"HCT-116; Homo sapiens, HCT-116",2600 nM
same,IC50,NCI-N87,1500 nM
same,IC50,A549,2000 nM
same,IC50,K562 [3],2200 nM
same,IC50,MCF7,2980 nM
same,IC50,MIA PaCa-2,> 20000 nM
COc1ccc(N(C)c2cc(C#N)nc3ccccc23)cc1/C=C/C(=O)NOC1CCCCO1 (stereo unspecified),GI50,"HCT-116; Homo sapiens, HCT-116",4.91 nM
COc1ccc(N(C)c2cc(C#N)nc3ccccc23)cc1C#CCCC(=O)NO,GI50,"HCT-116; Homo sapiens, HCT-116",25.2 nM
COc1ccc(N(C)c2cc(C#N)nc3ccccc23)cc1OCC(=O)NO,GI50,"HCT-116; Homo sapiens, HCT-116",64.5 nM
COc1ccc(N(C)c2nc(C)nc3ccccc23)cc1/C=C/C(=O)NOC1CCCCO1 (stereo unspecified),GI50,"HCT-116; Homo sapiens, HCT-116",12.5 nM
COc1ccc(N(C)c2cc(C)nc3ccccc23)cc1/C=C/C(=O)NO,GI50,"HCT-116; Homo sapiens, HCT-116",6.3 nM
COc1ccc(N(C)c2cc(C#N)nc3ccccc23)cc1I,GI50,"HCT-116; Homo sapiens, HCT-116",24.6 nM
